From US20120121540A1 (priority 2007, published 2012) come the findings set out here.

A short description of this assay: HCV replicon assay (luciferase reporter, ET cell line). Type of assay: cell-based. The settings on record: Hepatitis C virus, HCV replicon luciferase activity in ET cells. A digest of the protocol:
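EC50 and, via WST-1 cytotoxicity, TC50 were fitted with a Hill-coefficient equation to % inhibition across 10 two-fold dilutions. Compounds at 0.1 nM-[…] with 0.5% DMSO were applied 24 h post-seeding to replicon-bearing ET cells (luc-ubi-neo/NS3-5B, adaptive mutations). Firefly luciferase signal was measured after 48-72 h.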
A general note: Replicon systems follow genome replication, usually without infectious particles.
As to `C[C@@H](NC(=O)c1nc2c(C(F)(F)F)cc(-c3ccoc3)cn2c1Cl)c1ccccc1` [Compound 411, 3-Chloro-6-furan-3-yl-8-trifluoromethyl-imidazo[1,2-a]pyridine-2-carboxylic Acid (1-phenyl-ethyl)-amide], the inhibition at 10 µM turned out to be 74.8%.

`N#CC1(c2ccccc2)CCN(C(=O)c2nc3c(C(F)(F)F)cc(-c4ccoc4)cn3c2Cl)CC1` [Compound 601, 1-(3-Chloro-6-furan-3-yl-8-trifluoromethyl-imidazo[1,2-a]pyridine-2-carbonyl)-4-phenyl-piperidine-4-carbonitrile] yielded an inhibition at 10 µM of 98.3%.

`O=C(NC1CCc2ccccc21)c1nc2c(C(F)(F)F)cc(-c3ccco3)cn2c1Cl` (stereo not shown) [Compound 187, 3-Chloro-6-furan-2-yl-8-trifluoromethyl-imidazo[1,2-a]pyridine-2-carboxylic acid indan-1-ylamide] returned an inhibition at 10 µM of 34.2%.

The compound `O=C(c1nc2c(C(F)(F)F)cc(-c3ccoc3)cn2c1Cl)N1CC=C(c2cccc(F)c2)CC1` [Compound 576, (3-Chloro-6-furan-3-yl-8-trifluoromethyl-imidazo[1,2-a]pyridin-2-yl)-[4-(3-fluoro-phenyl)-3,6-dihydro-2H-pyridin-1-yl)-methanone] showed an inhibition at 10 µM of 82.6%.

With `O=C(c1nc2c(C(F)(F)F)cc(-c3ccoc3)cn2c1Cl)N1CC=C(c2ncccc2F)CC1` [Compound 571, (3-Chloro-6-furan-3-yl-8-trifluoromethyl-imidazo[1,2-a]pyridin-2-yl)-(3-fluoro-3′,6′-dihydro-2′H-[2,4′]bipyridinyl-1′-yl)-methanone], at 10 µM the inhibition was 97.8%.

On to `O=C(NCc1cccs1)c1nc2c(C(F)(F)F)cc(-c3ccccc3F)cn2c1Cl` [Compound 197, 3-Chloro-6-(2-fluoro-phenyl)-8-trifluoromethyl-imidazo[1,2-a]pyridine-2-carboxylic acid (thiophen-2-ylmethyl)-amide], for which the inhibition at 10 µM was determined as 90.6%.

`N#CC1CCN(C(=O)c2nc3c(C(F)(F)F)cc(-c4ccoc4)cn3c2Cl)C1` (stereo not shown) [Compound 416, 1-(3-Chloro-6-furan-3-yl-8-trifluoromethyl-imidazo[1,2-a]pyridine-2-carbonyl)-pyrrolidine-3-carbonitrile] gave an inhibition at 10 µM of 58%.

The compound `O=C(N[C@H]1C[C@@H]1c1ccccc1)c1nc2c(C(F)(F)F)cc(-c3ccco3)cn2c1Cl` (stereo in doubt) [Compound 188, 3-Chloro-6-furan-2-yl-8-trifluoromethyl-imidazo[1,2-a]pyridine-2-carboxylic acid (2-phenyl-cyclopropyl)-amide] had an inhibition at 10 µM of 80.5%.

As to `O=C(c1nc2c(C(F)(F)F)cc(-c3ccco3)cn2c1Cl)N1CCCC1c1cccs1` (stereo not shown) [Compound 189, (3-Chloro-6-furan-2-yl-8-trifluoromethyl-imidazo[1,2-a]pyridin-2-yl)-(2-thiophen-2-yl-pyrrolidin-1-yl)-methanone], the inhibition at 10 µM is 97.3%.

Take `O=C(c1nc2c(C(F)(F)F)cc(-c3ccoc3)cn2c1Cl)N1CCC(Nc2ccccc2)C1` (stereo not shown) [Compound 599, (3-Chloro-6-furan-3-yl-8-trifluoromethyl-imidazo[1,2-a]pyridin-2-yl)-(3-phenylamino-pyrrolidin-1-yl)-methanone]: the inhibition at 10 µM is 91.1%.

For the compound `O=C(c1nc2c(C(F)(F)F)cc(-c3ccoc3)cn2c1Cl)N1N=C(c2ccoc2)CC1c1cc(Br)ccc1O` (stereo not shown) [Compound 472, [5-(5-Bromo-2-hydroxy-phenyl)-3-furan-3-y-4,5-dihydro-pyrazol-1-yl]-(3-chloro-6-furan-3-yl-8-trifluoromethyl-imidazo[1,2-a]pyridin-2-yl)-methanone], the inhibition at 10 µM was 86.6%.

`O=C(NCc1cccs1)c1nc2c(C(F)(F)F)cc(-c3cccc(F)c3)cn2c1I` [Compound 299, 6-(3-Fluoro-phenyl)-3-iodo-8-trifluoromethyl-imidazo[1,2-a]pyridine-2-carboxylic Acid(thiophen-2-ylmethyl)-amide] registered an inhibition at 10 µM of 97.6%.

As to `O=C(c1nc2c(C(F)(F)F)cc(-c3ccco3)cn2c1Cl)N1CCCC1c1ccccc1` (stereo not shown) [Compound 322, (3-Chloro-6-furan-2-yl-8-trifluoromethyl-imidazo[1,2-a]pyridin-2-yl)-(2-phenyl-pyrrolidin-1-yl)-methanone], 10 µM produced 78.7% inhibition.

The compound `O=C(c1nc2c(C(F)(F)F)cc(-c3ccoc3)cn2c1Cl)N1CCC(c2ccc(F)c(F)c2)C1` (stereo not shown) [Compound 420, (3-Chloro-6-furan-3-yl-8-trifluoromethyl-imidazo[1,2-a]pyridine-2-yl)-[3-(3,4-difluoro-phenyl)-pyrrolidin-1-yl]-methanone] displayed an inhibition at 10 µM of 93.6%.

With `O=C(NCc1cccs1)c1nc2c(Cl)cc(-c3ccccc3)cn2c1Br` [Compound 369, 3-Bromo-8-chloro-6-phenyl-imidazo[1,2-a]pyridine-2-carboxylic Acid (thiophen-2-ylmethyl)-amide], the inhibition at 10 µM worked out at 88%.

The compound `C[C@H](NC(=O)c1nc2c(C(F)(F)F)cc(-c3ccoc3)cn2c1Cl)c1ccccc1` [Compound 412, 3-Chloro-6-furan-3-yl-8-trifluoromethyl-imidazo[1,2-a]pyridine-2-carboxylic Acid (1-phenyl-ethyl)-amide] gave an inhibition at 10 µM of 85%.

In turn, `O=C(NCc1ccc(N2CCOCC2)cc1)c1nc2c(C(F)(F)F)cc(-c3ccco3)cn2c1Cl` [Compound 212, 3-Chloro-6-furan-2-yl-8-trifluoromethyl-imidazo[1,2-a]pyridine-2-carboxylic Acid 4-morpholin-4-yl-benzylamide] came in with an inhibition at 10 µM of 56.7%.

Regarding `[H]/N=C(/NCc1cccs1)c1nc2c(C(F)(F)F)cc(-c3ccoc3)cn2c1Cl` [Compound 382, 3-Chloro-6-furan-3-yl-N-thiophen-2-ylmethyl-8-trifluoromethyl-imidazo[1,2-a]pyridine-2-carboxamidine], the inhibition at 10 µM is 65.4%.

Compound `O=C(c1nc2c(C(F)(F)F)cc(-c3ccco3)cn2c1Cl)N1CCCC1c1ccc(F)cc1` (stereo not shown) [Compound 329, (3-Chloro-6-furan-2-yl-8-trifluoromethyl-imidazo[1,2-a]pyridin-2-yl)-[2-(4-fluoro-phenyl)-pyrrolidin-1-yl]-methanone] displayed an inhibition at 10 µM of 97.6%.

As to `O=C(c1nc2c(C(F)(F)F)cc(-c3ccoc3)cn2c1Cl)N1CC=C(c2ccccc2F)CC1` [Compound 555, (3-Chloro-6-furan-3-yl-8-trifluoromethyl-imidazo[1,2-a]pyridin-2-yl)-[4-(2-fluoro-phenyl)-3,6-dihydro-2H-pyridin-1-yl)-methanone], 10 µM produced 95.5% inhibition.

In turn, `O=C(c1nc2c(C(F)(F)F)cc(-c3ccoc3)cn2c1Cl)N1C=C(c2ccccc2F)CCC1` [Compound 590, (3-Chloro-6-furan-3-yl-8-trifluoromethyl-imidazo[1,2-a]pyridine-2-yl)-[5-(2-fluoro-phenyl)-3,4-dihydro-2H-pyridin-1-yl]-methanone] showed an inhibition at 10 µM of 93.9%.

In the case of `O=C(c1nc2c(C(F)(F)F)cc(-c3ccoc3)cn2c1Cl)N1CCN(c2ccc(C(F)(F)F)cc2)CC1` [Compound 539], 10 µM produced 78.9% inhibition.

In turn, `O=C(c1nc2c(C(F)(F)F)cc(-c3ccoc3)cn2c1Cl)N1CC=C(c2cccs2)C1` [Compound 422, (3-Chloro-6-furan-3-yl-8-trifluoromethyl-imidazo[1,2-a]pyridin-2-yl)-(3-thiophen-2-yl-2,5-dihydro-pyrrol-1-yl)-methanone] came in with an inhibition at 10 µM of 99.8%.

`O=C(NCc1cccs1)c1nc2c(C(F)(F)F)cc(-c3ccccc3)cn2c1Br` [Compound 139, 3-Bromo-6-phenyl-8-trifluoromethyl-imidazo[1,2-a]pyridine-2-carboxylic Acid (thiophen-2-ylmethyl)-amide] gave an inhibition at 10 µM of 97.9%.

Compound `O=C(NCc1cccs1)c1nc2c(Br)cc(-c3ccccc3)cn2c1Cl` [Compound 371, 8-Bromo-3-chloro-6-phenyl-imidazo[1,2-a]pyridine-2-carboxylic Acid (thiophen-2-ylmethyl)-amide] had an inhibition at 10 µM of 78.6%.

The compound `O=C(NCc1ccccc1OC(F)(F)F)c1nc2c(C(F)(F)F)cc(-c3ccco3)cn2c1Cl` [Compound 202, 3-Chloro-6-furan-2-yl-8-trifluoromethyl-imidazo[1,2-a]pyridine-2-carboxylic acid 2-trifluoromethoxy-benzylamide] gave an inhibition at 10 µM of 78.1%.

Take `O=C(c1nc2c(C(F)(F)F)cc(-c3cn[nH]c3)cn2c1Br)N1CCC(c2nccs2)CC1` [Compound 611, [3-Bromo-6-(1H-pyrazol-4-yl)-8-trifluoromethyl-imidazo[1,2-a]pyridin-2-yl]-(4-thiazol-2-yl-piperidin-1-yl)-methanone]: the inhibition at 10 µM came out at 92.4%.

As to `O=C(c1nc2c(C(F)(F)F)cc(-c3ccoc3)cn2c1Cl)N1CCCC1c1ccccn1` (stereo not shown) [Compound 331, (3-Chloro-6-furan-3-yl-8-trifluoromethyl-imidazo[1,2-a]pyridin-2-yl)-(2-pyridin-2-yl-pyrrolidin-1-yl)-methanone], the inhibition at 10 µM stood at 53.3%.

Consider `CCN(CC)C(=O)/C=C/c1cc(-c2ccccc2)cn2c(Cl)c(C(=O)NCc3cccs3)nc12` [Compound 268, 3-Chloro-8-((E/Z)-2-diethylcarbamoyl-vinyl)-6-phenyl-imidazo[1,2-a]pyridine-2-carboxylic Acid (thiophen-2-ylmethyl)-amide], for which the inhibition at 10 µM was 40.2%.

As for `CC(C)Cn1cc(-c2cc(C(F)(F)F)c3nc(C(=O)NCc4cccs4)c(Cl)n3c2)cn1` [Compound 649, 3-Chloro-6-(1-isobutyl-1H-pyrazol-4-yl)-8-trifluoromethyl-imidazo[1,2-a]pyridine-2-carboxylic Acid(thiophen-2-ylmethyl)-amide], the inhibition at 10 µM was determined as 62.7%.

`O=C(CNC(=O)c1nc2c(C(F)(F)F)cc(-c3ccoc3)cn2c1Cl)c1cccc(F)c1` [Compound 409, 3-Chloro-6-furan-3-yl-8-trifluoromethyl-imidazo[1,2-a]pyridine-2-carboxylic Acid[2-(3-fluoro-phenyl)-2-oxo-ethyl]-amide] yielded an inhibition at 10 µM of 46.6%.

Broadly, the inhibition is the share of the control response that was lost under treatment. High values mean a response far below the control, low ones a response near the control.
